According to ChEMBL document CHEMBL4828735, “Discovery of N-((3S,4S)-4-(3,4-Difluorophenyl)piperidin-3-yl)-2-fluoro-4-(1-methyl-1H-pyrazol-5-yl)benzamide (Hu7691), a Potent and Selective Akt Inhibitor That Enables Decrease of Cutaneous Toxicity” (J Med Chem, 2021):
pIC50: −log10 of the molar value. The source made the active and inactive calls. The rule behind the calls is not given here.

Assays:
HGC-27 = experiment: Antiproliferative activity against human HGC-27 cells assessed as inhibition of cell growth incubated for 72 hrs by SRB assay; type: functional, cell-based; settings: HGC-27, 72 h
786-0 [1] = experiment: Antiproliferative activity against human 786-0 cells assessed as inhibition of cell growth incubated for 72 hrs by SRB assay; type: functional, cell-based; settings: 786-0, 72 h
KHOS/NP = experiment: Antiproliferative activity against human KHOS cells assessed as inhibition of cell growth incubated for 72 hrs by SRB assay; type: functional, cell-based
Homo sapiens = organism: Homo sapiens; experiment: Inhibition of PKA (unknown origin) at 0.5 uM
[2] = Inhibition of PKA (unknown origin); set-up: species or system Homo sapiens
[3] = molecular target: Protein kinase C theta type (Homo sapiens, UniProt Q04759); experiment: Inhibition of PKCtheta (unknown origin)
Sequence of Protein kinase C theta type (Q04759 whole entry): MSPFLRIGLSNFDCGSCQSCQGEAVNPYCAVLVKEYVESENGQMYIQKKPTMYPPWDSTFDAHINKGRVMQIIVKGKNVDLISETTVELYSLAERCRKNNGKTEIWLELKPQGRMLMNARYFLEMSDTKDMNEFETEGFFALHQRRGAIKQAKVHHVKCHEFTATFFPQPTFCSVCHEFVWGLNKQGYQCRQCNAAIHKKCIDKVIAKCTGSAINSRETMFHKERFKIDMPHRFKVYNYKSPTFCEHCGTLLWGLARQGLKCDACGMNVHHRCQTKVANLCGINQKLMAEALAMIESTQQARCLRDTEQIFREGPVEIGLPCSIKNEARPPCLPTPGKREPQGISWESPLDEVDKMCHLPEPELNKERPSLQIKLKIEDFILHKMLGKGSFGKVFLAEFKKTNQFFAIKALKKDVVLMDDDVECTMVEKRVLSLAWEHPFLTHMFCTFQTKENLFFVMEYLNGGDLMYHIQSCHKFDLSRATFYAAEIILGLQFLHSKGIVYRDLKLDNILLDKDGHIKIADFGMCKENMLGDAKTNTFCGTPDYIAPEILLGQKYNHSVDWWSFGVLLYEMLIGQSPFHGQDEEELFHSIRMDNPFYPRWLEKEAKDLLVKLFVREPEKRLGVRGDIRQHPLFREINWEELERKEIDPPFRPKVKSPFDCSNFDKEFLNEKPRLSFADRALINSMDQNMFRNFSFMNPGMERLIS

[4] = molecular target: Serine/threonine-protein kinase Sgk1 (Homo sapiens, UniProt O00141); experiment: Inhibition of SGK (unknown origin)
Sequence of Serine/threonine-protein kinase Sgk1 (O00141 whole entry): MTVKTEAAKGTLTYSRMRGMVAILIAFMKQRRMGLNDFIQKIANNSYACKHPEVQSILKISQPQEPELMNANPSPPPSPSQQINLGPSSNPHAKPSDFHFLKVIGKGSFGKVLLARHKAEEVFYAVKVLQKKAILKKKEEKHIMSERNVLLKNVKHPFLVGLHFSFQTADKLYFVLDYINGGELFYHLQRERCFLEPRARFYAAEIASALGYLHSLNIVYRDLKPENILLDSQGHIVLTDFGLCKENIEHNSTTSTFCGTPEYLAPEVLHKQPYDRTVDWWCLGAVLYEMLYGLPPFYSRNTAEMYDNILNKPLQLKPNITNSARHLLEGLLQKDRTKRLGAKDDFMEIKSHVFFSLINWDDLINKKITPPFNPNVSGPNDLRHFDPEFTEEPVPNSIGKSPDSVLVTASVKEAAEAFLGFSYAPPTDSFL

[5] = molecular target: Ribosomal protein S6 kinase alpha-5 (Homo sapiens, UniProt O75582); experiment: Inhibition of MSK1 (unknown origin)
Sequence of Ribosomal protein S6 kinase alpha-5 (O75582 whole entry): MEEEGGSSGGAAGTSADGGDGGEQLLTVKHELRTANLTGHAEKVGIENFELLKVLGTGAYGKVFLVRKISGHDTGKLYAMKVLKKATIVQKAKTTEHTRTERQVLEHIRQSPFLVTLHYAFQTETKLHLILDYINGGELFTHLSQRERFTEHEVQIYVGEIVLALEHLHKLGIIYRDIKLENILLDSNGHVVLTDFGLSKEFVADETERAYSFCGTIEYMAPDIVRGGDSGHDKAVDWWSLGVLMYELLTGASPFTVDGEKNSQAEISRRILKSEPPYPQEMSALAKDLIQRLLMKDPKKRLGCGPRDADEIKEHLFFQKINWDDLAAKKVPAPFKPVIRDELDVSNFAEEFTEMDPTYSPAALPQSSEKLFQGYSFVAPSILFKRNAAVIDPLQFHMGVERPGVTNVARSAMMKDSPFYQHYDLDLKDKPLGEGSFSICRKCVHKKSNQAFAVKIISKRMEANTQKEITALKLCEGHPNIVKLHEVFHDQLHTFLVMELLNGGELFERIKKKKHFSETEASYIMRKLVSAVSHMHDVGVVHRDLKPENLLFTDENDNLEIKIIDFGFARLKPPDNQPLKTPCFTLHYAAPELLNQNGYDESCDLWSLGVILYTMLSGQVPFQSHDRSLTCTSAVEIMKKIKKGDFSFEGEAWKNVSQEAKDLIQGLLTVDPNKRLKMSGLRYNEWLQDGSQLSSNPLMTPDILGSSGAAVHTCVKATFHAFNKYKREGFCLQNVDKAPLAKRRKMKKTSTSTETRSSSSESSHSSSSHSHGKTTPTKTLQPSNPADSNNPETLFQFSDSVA

[6] = molecular target: Testis-specific serine/threonine-protein kinase 1 (Homo sapiens, UniProt Q9BXA7); experiment: Inhibition of TSSK1 (unknown origin)
Sequence of Testis-specific serine/threonine-protein kinase 1 (Q9BXA7 whole entry): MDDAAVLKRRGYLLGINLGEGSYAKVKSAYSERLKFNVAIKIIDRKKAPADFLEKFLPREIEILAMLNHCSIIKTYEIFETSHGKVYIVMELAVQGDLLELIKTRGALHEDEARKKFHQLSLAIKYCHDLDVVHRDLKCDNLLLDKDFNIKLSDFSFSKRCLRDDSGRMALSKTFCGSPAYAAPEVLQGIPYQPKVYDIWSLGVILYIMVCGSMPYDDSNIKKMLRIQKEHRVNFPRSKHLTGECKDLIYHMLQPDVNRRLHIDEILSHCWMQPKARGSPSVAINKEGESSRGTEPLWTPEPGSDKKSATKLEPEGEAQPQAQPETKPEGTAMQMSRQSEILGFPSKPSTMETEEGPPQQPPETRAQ

[7] = molecular target: ALK tyrosine kinase receptor (Homo sapiens, UniProt Q9UM73); experiment: Inhibition of ALK (unknown origin)
[8] = molecular target: Serine/threonine-protein kinase Chk1 (Homo sapiens, UniProt O14757); experiment: Inhibition of CHK1 (unknown origin)
Sequence of Serine/threonine-protein kinase Chk1 (O14757 whole entry): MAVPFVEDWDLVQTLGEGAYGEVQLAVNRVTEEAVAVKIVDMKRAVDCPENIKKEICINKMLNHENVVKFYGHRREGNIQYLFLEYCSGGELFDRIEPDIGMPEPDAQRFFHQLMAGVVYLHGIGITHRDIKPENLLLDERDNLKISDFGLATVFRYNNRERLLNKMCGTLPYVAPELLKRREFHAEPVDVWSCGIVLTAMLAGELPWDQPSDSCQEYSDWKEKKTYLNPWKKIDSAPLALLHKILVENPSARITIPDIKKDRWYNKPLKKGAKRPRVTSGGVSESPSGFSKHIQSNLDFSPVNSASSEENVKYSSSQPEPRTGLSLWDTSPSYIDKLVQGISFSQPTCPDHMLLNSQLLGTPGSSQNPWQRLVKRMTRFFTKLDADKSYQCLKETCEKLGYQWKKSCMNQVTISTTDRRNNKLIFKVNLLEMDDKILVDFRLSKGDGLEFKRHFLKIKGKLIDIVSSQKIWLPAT

Aurora kinase A = Aurora kinase A (Homo sapiens, UniProt O14965); experiment: Inhibition of Aurora A (unknown origin)
Sequence of Aurora kinase A (O14965 whole entry): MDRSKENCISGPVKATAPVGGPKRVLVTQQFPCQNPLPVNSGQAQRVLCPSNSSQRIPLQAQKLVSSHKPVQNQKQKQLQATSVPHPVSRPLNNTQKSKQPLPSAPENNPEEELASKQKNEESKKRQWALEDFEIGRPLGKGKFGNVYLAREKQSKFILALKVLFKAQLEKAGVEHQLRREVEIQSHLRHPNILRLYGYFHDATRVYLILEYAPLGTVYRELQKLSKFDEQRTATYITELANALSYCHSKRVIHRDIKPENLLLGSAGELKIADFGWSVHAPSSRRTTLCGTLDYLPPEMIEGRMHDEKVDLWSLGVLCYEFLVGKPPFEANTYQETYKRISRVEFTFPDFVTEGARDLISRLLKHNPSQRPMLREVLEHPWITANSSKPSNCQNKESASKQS

SMMC-7721 = experiment: Antiproliferative activity against human SMMC-7721 cells assessed as inhibition of cell growth incubated for 72 hrs by SRB method; type: functional, cell-based; settings: SMMC-7721, 72 h
HT-29 = experiment: Antiproliferative activity against human HT-29 cells assessed as inhibition of cell growth incubated for 72 hrs by SRB method; type: functional, cell-based; settings: HT-29, 72 h
786-0 [9] = experiment: Antiproliferative activity against human 786-0 cells assessed as inhibition of cell growth incubated for 72 hrs by SRB method; type: functional, cell-based; settings: 786-0, 72 h
OS-RC-2 = experiment: Antiproliferative activity against human OS-RC-2 cells assessed as inhibition of cell growth incubated for 72 hrs by SRB method; type: functional, cell-based; settings: OS-RC-2, 72 h
MDA-MB-231 = experiment: Antiproliferative activity against human MDA-MB-231 cells assessed as inhibition of cell growth incubated for 72 hrs by SRB method; type: functional, cell-based; settings: MDA-MB-231, 72 h
LNCaP = experiment: Antiproliferative activity against human LNCaP cells assessed as inhibition of cell growth incubated for 72 hrs by SRB method; type: functional, cell-based
OVCAR-8 = experiment: Antiproliferative activity against human OVCAR-8 cells assessed as inhibition of cell growth incubated for 72 hrs by SRB method; type: functional, cell-based; settings: OVCAR-8, 72 h
Cytochrome P450 2C8 = Cytochrome P450 2C8 (Homo sapiens, UniProt P10632); experiment: Inhibition of CYP2C8 (unknown origin); type: ADME
Sequence of Cytochrome P450 2C8 (P10632 whole entry): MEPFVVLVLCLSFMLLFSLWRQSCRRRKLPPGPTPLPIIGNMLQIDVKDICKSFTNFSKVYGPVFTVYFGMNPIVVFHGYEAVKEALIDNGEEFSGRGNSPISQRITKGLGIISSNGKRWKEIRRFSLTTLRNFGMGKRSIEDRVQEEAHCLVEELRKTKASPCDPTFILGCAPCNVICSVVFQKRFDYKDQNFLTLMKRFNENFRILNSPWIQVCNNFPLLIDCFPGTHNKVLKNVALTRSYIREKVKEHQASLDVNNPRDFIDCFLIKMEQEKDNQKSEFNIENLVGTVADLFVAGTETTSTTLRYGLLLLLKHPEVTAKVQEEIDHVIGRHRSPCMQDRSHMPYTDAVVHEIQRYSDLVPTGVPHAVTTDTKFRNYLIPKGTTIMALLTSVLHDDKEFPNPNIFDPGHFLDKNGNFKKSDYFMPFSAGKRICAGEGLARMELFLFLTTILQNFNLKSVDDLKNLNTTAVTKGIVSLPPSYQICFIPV

Cytochrome P450 2D6 = Cytochrome P450 2D6 (Homo sapiens, UniProt P10635); experiment: Inhibition of CYP2D6 (unknown origin); type: ADME
Sequence of Cytochrome P450 2D6 (P10635 whole entry): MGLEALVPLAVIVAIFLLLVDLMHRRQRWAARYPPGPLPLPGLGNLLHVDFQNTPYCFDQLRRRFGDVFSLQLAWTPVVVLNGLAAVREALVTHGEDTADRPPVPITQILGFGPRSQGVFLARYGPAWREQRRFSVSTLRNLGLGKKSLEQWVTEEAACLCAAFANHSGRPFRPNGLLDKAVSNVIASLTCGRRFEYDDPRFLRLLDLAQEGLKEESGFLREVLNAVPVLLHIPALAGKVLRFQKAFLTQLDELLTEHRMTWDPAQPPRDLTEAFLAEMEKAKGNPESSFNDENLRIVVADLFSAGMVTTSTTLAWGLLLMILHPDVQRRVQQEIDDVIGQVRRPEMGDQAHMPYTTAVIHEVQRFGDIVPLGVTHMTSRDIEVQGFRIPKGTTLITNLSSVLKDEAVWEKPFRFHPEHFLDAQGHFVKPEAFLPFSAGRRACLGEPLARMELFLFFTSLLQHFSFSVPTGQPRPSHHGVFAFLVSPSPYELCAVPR

[10] = Microsomal stability in dog liver microsomes assessed as half life at 50 uM preincubated for 5 mins with NADPH followed by compound addition and measured upto 60 mins by LC-MS/MS analysis; type: ADME, Canis lupus familiaris, Microsome
[11] = Microsomal stability in dog liver microsomes assessed as intrinsic clearance at 50 uM preincubated for 5 mins with NADPH followed by compound addition and measured upto 60 mins by LC-MS/MS analysis; type: ADME, Canis lupus familiaris, Microsome; settings: read-out: CLH
[12] = Tmax in Sprague-Dawley rat at 15 mg/kg, ig measured upto 72 hrs by LC-MS/MS analysis; type: ADME, organism-based; settings: in vivo, po
[13] = Half life in Sprague-Dawley rat at 2 mg/kg, iv measured upto 24 hrs by LC-MS/MS analysis; type: ADME, organism-based; settings: in vivo
[14] = Cmax in Sprague-Dawley rat at 15 mg/kg, ig measured upto 72 hrs by LC-MS/MS analysis; type: ADME, organism-based; set-up: route […], dose 15 mg/kg, time <=72; settings: in vivo, po
[15] = Cmax in Sprague-Dawley rat at 2 mg/kg, iv measured upto 24 hrs by LC-MS/MS analysis; type: ADME, organism-based; set-up: route intravenous, dose 2 mg/kg, time <=24; settings: in vivo
[16] = Cmax in Beagle dog at 20 mg/kg, ig measured upto 96 hrs by LC-MS/MS analysis; type: ADME, organism-based, Canis lupus familiaris; set-up: route […], dose 20 mg/kg, time <=96; settings: in vivo, po
[17] = AUC(0 to infinity) in Sprague-Dawley rat at 15 mg/kg, ig measured upto 72 hrs by LC-MS/MS analysis; type: ADME, organism-based; set-up: route […], dose 15 mg/kg, time <=72; settings: in vivo, po
[18] = Oral bioavailability in Sprague-Dawley rat measured upto 72 hrs by LC-MS/MS analysis; type: ADME, organism-based; settings: in vivo
[19] = Drug metabolism in po dosed Sprague-Dawley rat feces assessed as M1 metabolite formation measured upto 24 hrs by UPLC-TOF-MS/MS analysis; type: ADME, organism-based; settings: in vivo
[20] = Drug metabolism in po dosed Sprague-Dawley rat bile assessed as M2 metabolite formation measured upto 24 hrs by UPLC-TOF-MS/MS analysis; type: ADME, organism-based; settings: in vivo
[21] = Drug metabolism in po dosed Sprague-Dawley rat blood assessed as M3 metabolite formation measured upto 6 hrs by UPLC-TOF-MS/MS analysis; type: ADME, organism-based; settings: in vivo
[22] = Toxicity in mouse assessed as maximum toxicity dose; settings: in vivo
[23] = Toxicity in Beagle dog assessed as maximum toxicity dose; set-up: species or system Canis lupus familiaris; settings: in vivo
[24] = Toxicity in Beagle dog assessed as thymic atrophy at 100 mg/kg; type: organism-based, Canis lupus familiaris; settings: in vivo
[25] = Toxicity in Sprague-Dawley rat assessed as increase in body weight at 25 to 50 mg/kg administered daily for 4 weeks; type: organism-based; settings: in vivo, 672 h, dose 25-50 mg/kg
[26] = Toxicity in Sprague-Dawley rat assessed as increase in body weight at 75 mg/kg administered daily for 4 weeks; type: organism-based; settings: in vivo, 672 h
[27] = Toxicity in Sprague-Dawley rat assessed as change in cell population at 25 to 75 mg/kg administered daily for 4 weeks; type: organism-based; settings: in vivo, 672 h, dose 25-75 mg/kg
[28] = Toxicity in Sprague-Dawley rat assessed as change in biochemical parameters at 25 to 75 mg/kg administered daily for 4 weeks; type: organism-based; settings: in vivo, 672 h, dose 25-75 mg/kg
[29] = Toxicity in Sprague-Dawley rat assessed as effect on spleen at 25 to 75 mg/kg administered daily for 4 weeks by histopathological analysis; type: organism-based; settings: in vivo, 672 h, dose 25-75 mg/kg
[30] = Toxicity in Sprague-Dawley rat assessed as effect on thymus at 25 to 75 mg/kg administered daily for 4 weeks by histopathological analysis; type: organism-based; settings: in vivo, 672 h, dose 25-75 mg/kg
[31] = Toxicity in Sprague-Dawley rat assessed as effect on bone marrow at 25 to 75 mg/kg administered daily for 4 weeks by histopathological analysis; type: organism-based; settings: in vivo, 672 h, dose 25-75 mg/kg
786-0 [32] = experiment: Antitumor activity against human 786-0 cells xenografted in dosed BALB/c nude mouse assessed as tumor growth inhibition at 12.5 to 50 mg/kg, ig administered once daily for 22 days; type: functional; settings: dose 12.5-50 mg/kg, time 22 day
[33] = Toxicity in BALB/c nude mouse xenografted with human KHOS cells assessed as mortality at 12.5 to 50 mg/kg, ig administered once daily for 22 days; type: organism-based; settings: in vivo, po, 528 h, dose 12.5-50 mg/kg, time 22 day

## Cl.Cn1nccc1-c1ccc(C(=O)N[C@@H]2CNCC[C@H]2c2ccc(F)c(F)c2)c(F)c1
HGC-27
  pIC50: 6.17
786-0 [1]
  pIC50: 5.60
KHOS/NP
  pIC50: 4.83
Homo sapiens
  inhibition: Active
[2]
  pIC50: 7.96
[3]
  pIC50: 6.20
[4]
  pIC50: 6.00
[5]
  pIC50: < 5.00
[6]
  pIC50: < 5.00
[7]
  pIC50: < 5.00
[8]
  pIC50: < 5.00
Aurora kinase A
  pIC50: < 5.00
SMMC-7721
  pIC50: 4.70
HT-29
  pIC50: 4.69
786-0 [9]
  pIC50: 5.07
OS-RC-2
  pIC50: 5.00
MDA-MB-231
  pIC50: 4.79
LNCaP
  pIC50: 6.21
OVCAR-8
  pIC50: 5.45
Cytochrome P450 2C8
  pIC50: < 4.00
Cytochrome P450 2D6
  pIC50: < 4.00
[10]
  half-life at 50 µM: 5.6 h
[11]
  microsomal CLint at 50 µM: 4.1 µL/min/mg
[12]
  Tmax: 1.67 h
[13]
  half-life: 6.24 h
[14]
  Cmax: 171 ng/mL
[15]
  Cmax: 208 ng/mL
[16]
  Cmax: 906 ng/mL
[17]
  AUC(0-inf): 2820 ng·h/mL
[18]
  bioavailability: 66.2%
[19]
  Drug metabolism: Metabolite_Detected
[20]
  Drug metabolism: Metabolite_Detected
[21]
  Drug metabolism: Metabolite_Detected
[22]
  MTD: 150 mg/kg
[23]
  MTD: 100 mg/kg
[24]
  Activity: Toxic
[25]
  Activity: Toxic
[26]
  Activity: Non-Toxic
[27]
  Activity: Non-Toxic
[28]
  Activity: Non-Toxic
[29]
  Activity: Non-Toxic
[30]
  Activity: Non-Toxic
[31]
  Activity: Non-Toxic
786-0 [32]
  TGI: 70%
[33]
  Activity: Non-Toxic
